Patent publication US10131652B2, “Pyrimidinyloxy benzene derivatives as herbicides” (E. I. DU PONT DE NEMOURS AND COMPANY, priority 2014, dated 2018)
Like-named read-outs stand apart in the source and are kept apart here.

Columns and labels:
Test in all cases: Test F pre-/postemergence plant response
Type in all cases: in vivo
[1] = system: johnsongrass (Sorghum halepense); details: Sorghum halepense, pre-emergence, scale 0 to 100, read-out: Plant response rating, Johnsongrass
Description: (§1) Seeds of plant species selected from corn (Zea mays), soybean (Glycine max), velvetleaf (Abutilon theophrasti), lambsquarters (Chenopodium album), wild poinsettia (Euphorbia heterophylla), palmer pigweed (Amaranthus palmeri), waterhemp (common waterhemp, Amaranthus rudis), surinam grass (Brachiaria decumbens), large (Lg) crabgrass (Digitaria sanguinalis), Brazilian crabgrass (Digitaria horizontalis), fall panicum (Panicum dichotomiflorum), giant foxtail (Setaria faberii), green foxtail (Setaria viridis), goosegrass (Eleusine indica), johnsongrass (Sorghum halepense), ragweed (common ragweed, Ambrosia elatior), barnyardgrass (Echinochloa crus-galli), sandbur (southern sandbur, Cenchrus echinatus), arrowleaf sida (Sida rhombifolia), Italian ryegrass (Lolium multiflorum), dayflower (Virginia (VA) dayflower, Commelina virginica), field bindweed (Convolvulus arvensis), cocklebur (common cocklebur, Xanthium strumarium), momingglory (Ipomoea coccinea), nightshade (eastern black nightshade, Solanum ptycanthum), kochia (Kochia scoparia), yellow nutsedge (Cyperus esculentus), and hairy beggarticks (Bidens pilosa), were planted into a silt loam soil and treated preemergence with test chemicals formulated in a non-phytotoxic solvent mixture which included a surfactant.
(§2) At the same time, plants from these crop and weed species and also waterhemp_RES1, (ALS & Triazine resistant common waterhemp, Amaranthus rudis), and waterhemp_RES2, (ALS & HPPD resistant common waterhemp, Amaranthus rudis) were treated with postemergence applications of test chemicals formulated in the same manner. Plants ranged in height from 2 to 18 cm for postemergence treatments (1- to 4-leaf stage).
(§3) Treated plants and controls were maintained in a greenhouse for 14 to 21 days, after which time all species were compared to controls and visually evaluated. Plant response ratings, summarized in Table F, are based on a scale of 0 to 100 where 0 is no effect and 100 is complete control. A dash (-) response means no test result.

[2] = system: lambsquarters (Chenopodium album); details: Chenopodium album, pre-emergence, scale 0 to 100, read-out: Plant response rating, Lambsquarters
Description: as §1, §2, §3

[3] = system: morningglory (Ipomoea coccinea); details: Ipomoea, pre-emergence, scale 0 to 100, read-out: Plant response rating, Morningglory
Description: as §1, §2, §3

[4] = system: palmer pigweed (Amaranthus palmeri); details: Amaranthus palmeri, scale 0 to 100, read-out: Plant response rating, Pigweed, Palmer
Description: as §1, §2, §3

[5] = system: sandbur (southern sandbur, Cenchrus echinatus); details: Cenchrus echinatus, scale 0 to 100, read-out: Plant response rating, Sandbur
Description: as §1, §2, §3

[6] = system: soybean (Glycine max); details: Glycine max, scale 0 to 100, read-out: Plant response rating, Soybean
Description: as §1, §2, §3

[7] = system: waterhemp (common waterhemp, Amaranthus rudis); details: Amaranthus tuberculatus, scale 0 to 100, read-out: Plant response rating, Waterhemp
Description: as §1, §2, §3

[8] = system: wild poinsettia (Euphorbia heterophylla); details: Euphorbia heterophylla, scale 0 to 100, read-out: Plant response rating, Poinsettia, Wild
Description: as §1, §2, §3

[9] = post-emergence, 8 g ai/ha Postemergence
[10] = post-emergence, 16 g ai/ha Postemergence
[11] = post-emergence, 31 g ai/ha Postemergence
[12] = post-emergence, 62 g ai/ha Postemergence
[13] = post-emergence, 125 g ai/ha Postemergence
[14] = pre-emergence, 8 g ai/ha Preemergence
[15] = pre-emergence, 16 g ai/ha Preemergence
[16] = pre-emergence, 31 g ai/ha Preemergence
[17] = pre-emergence, 125 g ai/ha Preemergence

## FC(F)c1cc(-c2ccccc2Oc2ncc(Cl)cn2)on1 [Compound 53, 5-chloro-2-[2-[3-(difluoromethyl)-5-isoxazolyl]phenoxy]pyrimidine]
[1]; 8 g ai/ha Preemergence
  pest or weed control at 8 g/ha: 0%
[1]; 16 g ai/ha Preemergence
  pest or weed control at 16 g/ha: 0%
[1]; 31 g ai/ha Preemergence
  pest or weed control at 31 g/ha: 0%
[1]; 125 g ai/ha Preemergence
  pest or weed control at 125 g/ha: 5%
[1]; Preemergence
  pest or weed control at 62 g/ha: 0%
[2]; 8 g ai/ha Preemergence
  pest or weed control at 8 g/ha: 65%
[2]; 16 g ai/ha, Preemergence
  pest or weed control at 16 g/ha: 65%
[2]; 31 g ai/ha, Preemergence
  pest or weed control at 31 g/ha: 95%
[2]; 125 g ai/ha, Preemergence
  pest or weed control at 125 g/ha: 98%
[2]; Preemergence
  pest or weed control at 62 g/ha: 95%
[3]; 8 g ai/ha Preemergence
  pest or weed control at 8 g/ha: 0%
[3]; 16 g ai/ha Preemergence
  pest or weed control at 16 g/ha: 0%
[3]; 31 g ai/ha Preemergence
  pest or weed control at 31 g/ha: 0%
[3]; 125 g ai/ha Preemergence
  pest or weed control at 125 g/ha: 0%
[3]; Preemergence
  pest or weed control at 62 g/ha: 0%
[4]; [9]
  pest or weed control at 8 g/ha: 70%
[4]; [10]
  pest or weed control at 16 g/ha: 65%
[4]; [11]
  pest or weed control at 31 g/ha: 90%
[4]; [12]
  pest or weed control at 62 g/ha: 100%
[4]; [13]
  pest or weed control at 125 g/ha: 100%
[4]; [14]
  pest or weed control at 8 g/ha: 0%
[4]; [15]
  pest or weed control at 16 g/ha: 0%
[4]; [16]
  pest or weed control at 31 g/ha: 90%
[4]; [17]
  pest or weed control at 125 g/ha: 100%
[4]; pre-emergence, Preemergence
  pest or weed control at 62 g/ha: 100%
[5]; [9]
  pest or weed control at 8 g/ha: 0%
[5]; [10]
  pest or weed control at 16 g/ha: 0%
[5]; [11]
  pest or weed control at 31 g/ha: 0%
[5]; [12]
  pest or weed control at 62 g/ha: 5%
[5]; [13]
  pest or weed control at 125 g/ha: 10%
[5]; [14]
  pest or weed control at 8 g/ha: 0%
[5]; [15]
  pest or weed control at 16 g/ha: 0%
[5]; [16]
  pest or weed control at 31 g/ha: 0%
[5]; [17]
  pest or weed control at 125 g/ha: 0%
[5]; pre-emergence, Preemergence
  pest or weed control at 62 g/ha: 0%
[6]; [9]
  plant injury at 8 g/ha: 40%
[6]; [10]
  plant injury at 16 g/ha: 80%
[6]; [11]
  plant injury at 31 g/ha: 95%
[6]; [12]
  plant injury at 62 g/ha: 95%
[6]; [13]
  plant injury at 125 g/ha: 95%
[6]; [14]
  plant injury at 8 g/ha: 0%
[6]; [15]
  plant injury at 16 g/ha: 0%
[6]; [16]
  plant injury at 31 g/ha: 0%
[6]; [17]
  plant injury at 125 g/ha: 35%
[6]; pre-emergence, Preemergence
  plant injury at 62 g/ha: 0%
[7]; [9]
  pest or weed control at 8 g/ha: 80%
[7]; [10]
  pest or weed control at 16 g/ha: 95%
[7]; [11]
  pest or weed control at 31 g/ha: 98%
[7]; [12]
  pest or weed control at 62 g/ha: 100%
[7]; [13]
  pest or weed control at 125 g/ha: 100%
[7]; [14]
  pest or weed control at 8 g/ha: 0%
[7]; [15]
  pest or weed control at 16 g/ha: 0%
[7]; [16]
  pest or weed control at 31 g/ha: 95%
[7]; [17]
  pest or weed control at 125 g/ha: 100%
[7]; pre-emergence, Preemergence
  pest or weed control at 62 g/ha: 100%
[8]; [9]
  pest or weed control at 8 g/ha: 50%
[8]; [10]
  pest or weed control at 16 g/ha: 50%
[8]; [11]
  pest or weed control at 31 g/ha: 60%
[8]; [12]
  pest or weed control at 62 g/ha: 70%
[8]; [13]
  pest or weed control at 125 g/ha: 70%
[8]; [14]
  pest or weed control at 8 g/ha: 0%
[8]; [15]
  pest or weed control at 16 g/ha: 0%
[8]; [16]
  pest or weed control at 31 g/ha: 0%
[8]; [17]
  pest or weed control at 125 g/ha: 0%
[8]; pre-emergence, Preemergence
  pest or weed control at 62 g/ha: 0%
